Tests used:
Experiment in all cases: relative viability (nuclei count vs DMSO), 5 days (fraction); higher = more cells survive
R406 + Crizotinib = compound: COc1cc(Nc2ncc(F)c(Nc3ccc4c(n3)NC(=O)C(C)(C)O4)n2)cc(OC)c1OC [R406] + C[C@@H](Oc1cc(-c2cnn(C3CCNCC3)c2)cnc1N)c1c(Cl)ccc(F)c1Cl [Crizotinib] (partner 1 µM)
Outline: (§1)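 Lung cancer cell lines were seeded in 1536-well plates and dosed by pin tool the next day, with either a single drug or a fixed anchor-drug dose combined with five library-drug doses (not always all listed) spaced in √10 steps. Five days later, one step fixed the cells and stained their nuclei (final 0.05% Triton X-100, 1% formaldehyde, 1 ug/ml Hoechst), and nuclei were counted on 4× images. Relative viability is the nuclei count in treated wells divided by the count in vehicle wells, and each value is the median of duplicate plates.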

Daporinad + Palbociclib = compound: O=C(/C=C/c1cccnc1)NCCCCC1CCN(C(=O)c2ccccc2)CC1 [Daporinad] + CC(=O)c1c(C)c2cnc(Nc3ccc(N4CCNCC4)cn3)nc2n(C2CCCC2)c1=O [Palbociclib] (partner 0.5 µM)
Outline: as §1

R406 + Linsitinib = compound: COc1cc(Nc2ncc(F)c(Nc3ccc4c(n3)NC(=O)C(C)(C)O4)n2)cc(OC)c1OC [R406] + C[C@]1(O)C[C@@H](c2nc(-c3ccc4ccc(-c5ccccc5)nc4c3)c3c(N)nccn32)C1 [Linsitinib] (partner 1 µM)
Outline: as §1

Daporinad + Decitabine = compound: O=C(/C=C/c1cccnc1)NCCCCC1CCN(C(=O)c2ccccc2)CC1 [Daporinad] + Nc1ncn([C@H]2C[C@H](O)[C@@H](CO)O2)c(=O)n1 [Decitabine] (partner 2 µM)
Outline: as §1

| Cell Line | relative viability (R406 + Crizotinib; first compound 0.08 µM) | relative viability (R406 + Crizotinib; first compound 0.253 µM) | relative viability (R406 + Crizotinib; first compound 0.8 µM) | relative viability (R406 + Crizotinib; first compound 2.53 µM) | relative viability (R406 + Crizotinib; first compound 8 µM) | relative viability (Daporinad + Palbociclib; first compound 0.0005 µM) | relative viability (Daporinad + Palbociclib; first compound 0.001581 µM) | relative viability (Daporinad + Palbociclib; first compound 0.005 µM) | relative viability (Daporinad + Palbociclib; first compound 0.01581 µM) | relative viability (R406 + Linsitinib; first compound 0.08 µM) | relative viability (R406 + Linsitinib; first compound 0.253 µM) | relative viability (R406 + Linsitinib; first compound 0.8 µM) | relative viability (R406 + Linsitinib; first compound 2.53 µM) | relative viability (R406 + Linsitinib; first compound 8 µM) | relative viability (Daporinad + Decitabine; first compound 0.0005 µM) | relative viability (Daporinad + Decitabine; first compound 0.001581 µM) | relative viability (Daporinad + Decitabine; first compound 0.005 µM) | relative viability (Daporinad + Decitabine; first compound 0.01581 µM) |
| --- | --- | --- | --- | --- | --- | --- | --- | --- | --- | --- | --- | --- | --- | --- | --- | --- | --- | --- |
| LXF-289 | 0.739 | 0.918 | 0.833 | 0.832 | 0.259 | 0.59 | 0.633 | 0.6 | 0.602 | 0.922 | 0.967 | 0.994 | 0.989 | 0.295 | 0.4 | 0.426 | 0.397 | 0.332 |
| NCI-H522 | – | – | – | – | – | 1.06 | 1.06 | 0.746 | 0.908 | – | – | – | – | – | 0.626 | 0.689 | 0.634 | 0.628 |
| NCI-H596 | 0.837 | 1.1 | 1.09 | 0.796 | 0.245 | – | – | – | – | 1.09 | 1.2 | 1.2 | 0.878 | 0.232 | 0.982 | 1 | 0.912 | 0.636 |
| NCI-H1299 | 0.941 | 0.946 | 0.977 | 1.03 | 0.543 | – | – | – | – | 0.979 | 1.09 | 1.13 | 0.93 | 0.496 | – | – | – | – |
| NCI-H1395 | – | – | – | – | – | 0.659 | 0.618 | 0.531 | 0.718 | 1.02 | 1.26 | 1.18 | 0.866 | 0.727 | 0.713 | 0.816 | 0.765 | 0.784 |
| NCI-H1563 | 0.791 | 0.868 | 0.891 | 0.913 | 0.619 | – | – | – | – | 1.12 | 1.31 | 1.29 | 1.2 | 1.16 | – | – | – | – |
| NCI-H1648 | – | – | – | – | – | 0.305 | 0.291 | 0.278 | 0.237 | – | – | – | – | – | 0.463 | 0.528 | 0.511 | 0.44 |
| NCI-H1650 | 1.05 | 1.09 | 0.961 | 0.327 | 0.139 | 0.321 | 0.413 | 0.415 | 0.334 | – | – | – | – | – | 0.402 | 0.396 | 0.458 | 0.327 |
| NCI-H1703 | 0.623 | – | 0.662 | 0.199 | 0.129 | – | – | – | – | 0.742 | 0.859 | 0.695 | 0.186 | 0.139 | – | – | – | – |
| NCI-H1793 | – | – | – | – | – | 0.305 | 0.33 | 0.346 | 0.332 | 0.703 | 1.01 | 1.2 | 0.57 | 0.376 | 0.45 | 0.496 | 0.489 | 0.564 |
| NCI-H2170 | 1.16 | 1.25 | 1.15 | 0.815 | 0.495 | 0.351 | 0.39 | 0.394 | 0.381 | – | – | – | – | – | 0.491 | 0.446 | 0.444 | 0.439 |
| NCI-H2228 | 0.572 | 0.435 | 0.528 | 0.164 | 0.101 | 0.67 | 0.745 | 0.529 | 0.811 | 0.729 | 0.813 | 0.889 | 0.273 | 0.154 | – | – | – | – |
| NCI-H2342 | – | – | – | – | – | 0.513 | 0.506 | 0.506 | 0.535 | – | – | – | – | – | 0.814 | 0.58 | 0.67 | 0.72 |
| SW 900 | – | – | – | – | – | 0.432 | – | 0.573 | 0.501 | – | – | – | – | – | 0.438 | – | 0.403 | 0.374 |
